According to the NIST ThermoML archive (doi:10.1021/je400783h):

Settings: for surface tension liquid-gas: Drop volume; for viscosity / speed of sound / mass density / vapor or sublimation pressure: Liquid; for viscosity: Capillary tube (Ostwald / Ubbelohde) method; for speed of sound: Pulse-echo method; for vapor or sublimation pressure: Ebulliometric method (Recirculating still)

Cc1ccc(C=O)o1 [5-methylfurfural]
Settings | surface tension liquid-gas [mN/m] | vapor or sublimation pressure [kPa]
278.15 K | 43.02 | –
280.65 K | 42.75 | –
283.15 K | 42.37 | –
285.65 K | 42.13 | –
288.15 K | 41.8 | –
290.65 K | 41.46 | –
293.15 K | 41.2 | –
295.65 K | 40.9 | –
298.15 K | 40.61 | –
300.65 K | 40.22 | –
303.15 K | 39.95 | 0.1
305.65 K | 39.66 | –
308.15 K | 39.32 | 0.15
310.65 K | 39.04 | –
313.15 K | 38.75 | –

Settings | mass density [kg/m3] | speed of sound [m/s] | viscosity [mPa·s]
278.15 K, 101.33 kPa | – | 1521 | 3.164
280.65 K, 101.33 kPa | – | 1511.8 | 2.974
283.15 K, 100 kPa | 1118.02 | – | –
283.15 K, 101.33 kPa | – | 1502.5 | 2.764
283.15 K, 2500 kPa | 1119.83 | – | –
283.15 K, 5000 kPa | 1121.37 | – | –
283.15 K, 7500 kPa | 1122.65 | – | –
283.15 K, 10000 kPa | 1124.02 | – | –
283.15 K, 20000 kPa | 1129.41 | – | –
283.15 K, 30000 kPa | 1134.53 | – | –
283.15 K, 40000 kPa | 1139.44 | – | –
283.15 K, 50000 kPa | 1144.14 | – | –
283.15 K, 60000 kPa | 1148.58 | – | –
285.65 K, 101.33 kPa | – | 1493.2 | 2.628
288.15 K, 100 kPa | 1113.09 | – | –
288.15 K, 101.33 kPa | – | 1484 | 2.443
288.15 K, 2500 kPa | 1114.82 | – | –
288.15 K, 5000 kPa | 1116.39 | – | –
288.15 K, 7500 kPa | 1117.87 | – | –
288.15 K, 10000 kPa | 1119.23 | – | –
288.15 K, 20000 kPa | 1124.75 | – | –
288.15 K, 30000 kPa | 1129.99 | – | –
288.15 K, 40000 kPa | 1134.99 | – | –
288.15 K, 50000 kPa | 1139.79 | – | –
288.15 K, 60000 kPa | 1144.31 | – | –
290.65 K, 101.33 kPa | – | 1474.7 | 2.297
293.15 K, 100 kPa | 1108.15 | – | –
293.15 K, 101.33 kPa | – | 1465.5 | 2.175
293.15 K, 2500 kPa | 1110.03 | – | –
293.15 K, 5000 kPa | 1111.5 | – | –
293.15 K, 7500 kPa | 1112.96 | – | –
293.15 K, 10000 kPa | 1114.4 | – | –
293.15 K, 20000 kPa | 1120.15 | – | –
293.15 K, 30000 kPa | 1125.46 | – | –
293.15 K, 40000 kPa | 1130.57 | – | –
293.15 K, 50000 kPa | 1135.4 | – | –
293.15 K, 60000 kPa | 1140.08 | – | –
295.65 K, 101.33 kPa | – | 1456.3 | 2.056
298.15 K, 100 kPa | 1103.2 | – | –
298.15 K, 101.33 kPa | – | 1447 | 1.948
298.15 K, 2500 kPa | 1104.82 | – | –
298.15 K, 5000 kPa | 1106.62 | – | –
298.15 K, 7500 kPa | 1108.34 | – | –
298.15 K, 10000 kPa | 1109.63 | – | –
298.15 K, 20000 kPa | 1115.43 | – | –
298.15 K, 30000 kPa | 1120.97 | – | –
298.15 K, 40000 kPa | 1126.15 | – | –
298.15 K, 50000 kPa | 1131.12 | – | –
298.15 K, 60000 kPa | 1135.84 | – | –
300.65 K, 101.33 kPa | – | 1437.8 | 1.853
303.15 K, 100 kPa | 1098.25 | – | –
303.15 K, 101.33 kPa | – | 1428.7 | 1.757
303.15 K, 2500 kPa | 1100.71 | – | –
303.15 K, 5000 kPa | 1101.81 | – | –
303.15 K, 7500 kPa | 1103.11 | – | –
303.15 K, 10000 kPa | 1104.89 | – | –
303.15 K, 20000 kPa | 1110.81 | – | –
303.15 K, 30000 kPa | 1116.44 | – | –
303.15 K, 40000 kPa | 1121.72 | – | –
303.15 K, 50000 kPa | 1126.87 | – | –
303.15 K, 60000 kPa | 1131.66 | – | –
305.65 K, 101.33 kPa | – | 1419.6 | 1.674
308.15 K, 100 kPa | 1093.29 | – | –
308.15 K, 101.33 kPa | – | 1410.5 | 1.598
308.15 K, 2500 kPa | 1095.01 | – | –
308.15 K, 5000 kPa | 1096.9 | – | –
308.15 K, 7500 kPa | 1098.15 | – | –
308.15 K, 10000 kPa | 1100.06 | – | –
308.15 K, 20000 kPa | 1106.17 | – | –
308.15 K, 30000 kPa | 1111.86 | – | –
308.15 K, 40000 kPa | 1117.24 | – | –
308.15 K, 50000 kPa | 1122.38 | – | –
308.15 K, 60000 kPa | 1127.34 | – | –
310.65 K, 101.33 kPa | – | 1401.4 | 1.527
313.15 K, 100 kPa | 1088.32 | – | –
313.15 K, 101.33 kPa | – | 1392.3 | 1.461
313.15 K, 2500 kPa | 1090.31 | – | –
313.15 K, 5000 kPa | 1092.06 | – | –

101.33 kPa, Vibrating tube method
Settings | mass density [kg/m3]
278.15 K | 1122.94
280.65 K | 1120.49
283.15 K | 1118.02
285.65 K | 1115.56
288.15 K | 1113.09
290.65 K | 1110.62
293.15 K | 1108.15
295.65 K | 1105.68
298.15 K | 1103.2
300.65 K | 1100.73
303.15 K | 1098.25
305.65 K | 1095.77
308.15 K | 1093.29
310.65 K | 1090.8
313.15 K | 1088.32
